The term Ki denotes the equilibrium dissociation constant of an inhibitor or competing ligand from its target. By IC50 is commonly meant the point on the concentration scale where inhibition reaches its midpoint. A low value points to higher potency. As usually defined, the inhibition is the drop in the measured response relative to a control, in per cent.

The record followed here is patent US8710233B2 (Gruenenthal GmbH, priority 2005, dated 2014).

SMILES strings stand for the structures. Like-named read-outs stand apart in the source and are kept apart here.

In one assay the target is T1, vanilloid receptor (VR1) (Homo sapiens, UniProt Q8NER1).
T1 construct: expressed in transfected cells; host or cells: CHO K1 cells (ECACC), stably transfected
Put plainly: FLIPR Ca2+ influx assay on CHO K1 cells transfected with the VR1 gene (pharmacological method II). It counts as cell-based.

Assay [1] concerns capsaicin induced hypothermie. Put plainly: Hypothermie assay in the mouse (capsaicin induced hypothermie). It counts as in vivo. Particulars: mouse, read-out: inhibition hypothermie (n = 5); for inhibition in vivo at 0.1 mg/kg: 0.1 mg/kg body weight po; for inhibition in vivo at 0.3 mg/kg: 0.3 mg/kg body weight po; for inhibition in vivo at 1 mg/kg: 1 mg/kg body weight po. On the procedure: V. Hypothermie Assay an der Maus
Male NMRI mice (weight 25-35 gram, supplier IFFA CREDO, Bruxelles, Belgium) are used in the hypothermie assay. The animals are kept under standardized conditions: light/darkness interval (6:00 to 18:00 light; 18:00 to 6:00 Uhr darkness), room temperature 19-22° C., relative humidity 35-70%, 15 times per hour change of compartment air, airflow <0.2 m/sec. The animals were fed on a standardized diet (ssniff diet, ssniff Spezialdiäten GmbH, Soest, Germany) and tap water. Water and diet were detracted during the experiment. All animals were used once in the experiment. The animals were allowed to adapt to the experimental conditions for at least 5 days.
The acute application of capsaicin (VR-1 agonist) leads to a decrease of the core body temperature in rat and mice via stimulation of heat sensors. Only compounds which act as specific VR-1-receptor antagonists can antagonize the capsaicin induced hypothermie. In contrast, morphine induced hypothermie is not antagonized by VR-1 antagonists. Thus, this experiment is suitable for the determination of compounds that act as VR1-antagonists via their effect on the core body temperature.
For the determination of the core body temperature a digital thermometer was used (Thermalert TH-5, physitemp, Clifton N.J., USA). The measuring head was inserted into the rectum.
The individual basis value is determined by measuring the body temperature twice in an interval of about half an hour. […] […] The test compound is given 10 min (i.v.) or 15 min (p.o.), respectively, before application of capsaicin. The body temperature is determined 7.5/15 and 30 min after application of capsaicin (i.v.+i.p.) or 15/30/60/90/120 min after application of capsaicin (p.o.+i.p.), respectively. In addition, another group of mice is only given the test compound or a vehicle control.
The measuring points are given as average values±S.E.M. of the absolute values. The antagonistic effect is given in percent of inhibition of capsaicin induced hypothermie.

The target in the next assay is VR1/TRPV1 receptor (Homo sapiens, UniProt Q8NER1). Put plainly: IC50 (human) after pH stimulus. It counts as cell-based.
The target of assay [2] is T2, vanilloid receptor 1 (VR1/TRPV1) of the rat species (Rattus norvegicus, UniProt O35433).
T2 construct: The spinal column is removed from decapitated rats; from tissue; host or cells: primary cells dissociated from rat dorsal root ganglia
Put plainly: FLIPR Ca2+ influx assay on rat dorsal root ganglia cells (pharmacological method I). It counts as cell-based. The procedure, abridged:
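Primary rat dorsal root ganglion cells loaded with 2 μM Fluo-4, Ca2+ influx read on FLIPR as peak fluorescence. Triplicates, at least 3 independent experiments.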

The mark [3] stands for this setting: table 4, capsaicin, read-out: Ki (human) Cap.
The mark [4] stands for this setting: table 4, capsaicin, read-out: Ki (rat) Cap.
Where [5] appears, read: Ki (rat) Cap., table 4, capsaicin.
Setting [6] is: @ 1 μM, ne = no effect, read-out: inhibition in percent, IC50 (human) after pH stimulus.

T1 sequence (Q8NER1 whole entry): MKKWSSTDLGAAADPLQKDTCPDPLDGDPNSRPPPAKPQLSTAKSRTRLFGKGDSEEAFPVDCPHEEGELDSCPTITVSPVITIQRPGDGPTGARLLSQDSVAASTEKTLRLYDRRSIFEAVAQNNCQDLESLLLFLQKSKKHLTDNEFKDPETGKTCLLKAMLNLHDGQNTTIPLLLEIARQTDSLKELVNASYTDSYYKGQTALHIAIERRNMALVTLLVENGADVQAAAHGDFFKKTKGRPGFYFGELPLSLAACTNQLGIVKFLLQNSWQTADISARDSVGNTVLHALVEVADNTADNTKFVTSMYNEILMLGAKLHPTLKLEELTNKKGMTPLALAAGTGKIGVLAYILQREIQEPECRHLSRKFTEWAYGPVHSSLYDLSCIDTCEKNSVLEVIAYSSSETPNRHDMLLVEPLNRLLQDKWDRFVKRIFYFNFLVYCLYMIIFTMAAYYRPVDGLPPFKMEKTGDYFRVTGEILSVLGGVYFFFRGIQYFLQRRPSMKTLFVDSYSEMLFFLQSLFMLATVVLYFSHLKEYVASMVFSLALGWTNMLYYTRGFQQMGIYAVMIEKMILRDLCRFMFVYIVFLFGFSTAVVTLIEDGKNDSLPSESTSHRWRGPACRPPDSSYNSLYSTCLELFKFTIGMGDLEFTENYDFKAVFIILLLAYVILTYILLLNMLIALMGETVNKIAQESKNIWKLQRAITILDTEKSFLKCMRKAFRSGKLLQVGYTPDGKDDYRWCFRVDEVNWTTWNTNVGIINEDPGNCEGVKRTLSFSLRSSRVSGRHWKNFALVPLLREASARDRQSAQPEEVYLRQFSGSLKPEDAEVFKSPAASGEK
Sequence of VR1/TRPV1 receptor (Q8NER1 whole entry): as above
T2 sequence (O35433 whole entry): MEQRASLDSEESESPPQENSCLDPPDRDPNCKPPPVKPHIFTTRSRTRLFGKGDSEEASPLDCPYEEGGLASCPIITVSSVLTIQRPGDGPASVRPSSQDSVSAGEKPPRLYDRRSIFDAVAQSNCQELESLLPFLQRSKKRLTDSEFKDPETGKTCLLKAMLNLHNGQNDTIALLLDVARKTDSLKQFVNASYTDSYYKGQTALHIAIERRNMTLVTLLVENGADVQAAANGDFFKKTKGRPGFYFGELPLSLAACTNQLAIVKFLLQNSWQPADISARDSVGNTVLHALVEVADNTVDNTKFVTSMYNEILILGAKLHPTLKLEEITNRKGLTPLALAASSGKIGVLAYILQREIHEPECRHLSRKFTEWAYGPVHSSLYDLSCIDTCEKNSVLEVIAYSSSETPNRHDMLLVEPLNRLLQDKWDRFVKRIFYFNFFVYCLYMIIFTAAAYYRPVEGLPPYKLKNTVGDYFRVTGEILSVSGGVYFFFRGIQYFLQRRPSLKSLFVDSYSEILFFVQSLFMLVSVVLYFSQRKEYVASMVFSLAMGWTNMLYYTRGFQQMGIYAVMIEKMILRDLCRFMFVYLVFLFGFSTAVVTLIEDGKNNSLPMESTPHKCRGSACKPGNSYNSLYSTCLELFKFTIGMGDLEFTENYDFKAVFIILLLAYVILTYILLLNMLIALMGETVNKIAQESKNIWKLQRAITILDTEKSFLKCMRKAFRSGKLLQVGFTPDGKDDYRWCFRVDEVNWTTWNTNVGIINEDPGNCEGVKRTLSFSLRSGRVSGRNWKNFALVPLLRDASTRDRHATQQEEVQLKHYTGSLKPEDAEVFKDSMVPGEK

With `CC(C(=O)NCc1ccc(C(F)(F)F)nc1N1CCC(Nc2ccccc2)CC1)c1ccc(NS(C)(=O)=O)c(F)c1` (centres unmarked) [Example 290, 2-(3-fluoro-4-methylsulfonamido-phenyl)-N-(4-phenylamino-6′-trifluoromethyl-3,4,5,6-tetrahydro-2H-[1,2′]bipyridinyl-3′-ylmethyl)-propionamide], the Ki at vanilloid receptor (VR1) (setting [3]) was 4.4 nM. In assay [1], the inhibition in vivo at 0.1 mg/kg was found to be 24%. For the same molecule, the concentration for half-maximal inhibition (IC50) on VR1/TRPV1 receptor (table 4) was 480 nM.

Take `CC(C(=O)NCc1ccc(C(F)(F)F)nc1N1CC=CCC1)c1ccc(NS(C)(=O)=O)c(F)c1` (centres unmarked) [Example 139, 2-(3-fluoro-4-methylsulfonamido-phenyl)-N-(6′-trifluoromethyl-3,6-dihydro-2H-[1,2′]bipyridinyl-3′-ylmethyl)-propionamide]: the figures for the Ki (in assay [2] (setting [4]); on vanilloid receptor (VR1) (setting [3])) were 0.9 nM and 0.3 nM, respectively. The inhibition in vivo at 0.3 mg/kg in assay [1] turned out to be 43%. On VR1/TRPV1 receptor (table 4), the IC50 amounted to 12.1 nM.

On to `CCCN(CCC)c1nc(C(F)(F)F)ccc1CNC(=O)C(C)c1ccc(NS(C)(=O)=O)c(F)c1` (centres unmarked) [Example 16, N-((2-(dipropylamino)-6-(trifluoromethyl)pyridin-3-yl)methyl)-2-(3-fluoro-4-(methylsulfonamido)phenyl)propanamide], for which the Ki in assay [2] (setting [4]) stood at 0.8 nM; on vanilloid receptor (VR1) (setting [3]), 0.2 nM. In assay [1], the inhibition in vivo at 0.3 mg/kg was 12%. The molecule also displayed an IC50 against VR1/TRPV1 receptor (table 4) of 14.7 nM.

Turning to `CCCCCCOc1nc(C(F)(F)F)ccc1CNC(=O)[C@@H](C)c1ccc(NS(C)(=O)=O)c(F)c1` [Example 93, (S)-2-(3-fluoro-4-methylsulfonamido-phenyl)-N-(2-hexyloxy-6-trifluoromethyl-pyridin-3-ylmethyl)-propionamide], the Ki in assay [2] (setting [5]) was found to be 0.2 nM; on vanilloid receptor (VR1) (setting [3]), 0.4 nM. The inhibition in vivo at 0.3 mg/kg in assay [1] was found to be 4%. Moreover, half-maximal inhibition against VR1/TRPV1 receptor (table 4) (IC50) was put at 12.3 nM.

As to `CC(C(=O)NCc1ccc(C(F)(F)Cl)nc1N1CCCCCC1)c1ccc(NS(C)(=O)=O)c(F)c1` (centres unmarked) [Example 132, N-[2-azepan-1-yl-6-(chloro-difluoro-methyl)-pyridin-3-ylmethyl]-2-(3-fluoro-4-methylsulfonamido-phenyl)-propionamide], the Ki in assay [2] (setting [4]) was determined as 0.7 nM. Moreover, in assay [1], the inhibition in vivo at 0.3 mg/kg worked out at 0%. On VR1/TRPV1 receptor (table 4), this molecule registered an IC50 of 14.7 nM.

As for `CCCCCCOc1nc(C(F)(F)F)ccc1CNC(=O)[C@H](C)c1ccc(NS(C)(=O)=O)c(F)c1` [Example 94, (R)-2-(3-fluoro-4-methylsulfonamido-phenyl)-N-(2-hexyloxy-6-trifluoromethyl-pyridin-3-ylmethyl)-propionamide], in assay [1], the inhibition in vivo at 0.3 mg/kg is 0%.

`CC(C)COc1cc(C(F)(F)F)ccc1CNC(=O)[C@H](C)c1ccc(NS(C)(=O)=O)c(F)c1` [Example 99, (R)-2-(3-fluoro-4-methylsulfonamido-phenyl)-N-(2-isobutoxy-4-trifluoromethyl-benzyl)-propionamide]: the Ki on vanilloid receptor (VR1) (setting [3]) amounted to 5.8 nM. Moreover, the inhibition in vivo at 0.3 mg/kg in assay [1] stood at 1%. Also, 419 nM corresponded to half-maximal inhibition against VR1/TRPV1 receptor (table 4) (IC50).

Consider `CC(C(=O)NCc1ccc(C(F)(F)F)nc1OCc1ccccc1)c1ccc(NS(C)(=O)=O)c(F)c1` (centres unmarked) [Compound 106], for which, in assay [1], the inhibition in vivo at 0.3 mg/kg was 21% and the inhibition in vivo at 1 mg/kg worked out at 22%. In addition, the inhibition in vivo at 10 mg/kg in assay [1] (10 mg/kg body weight po) stood at 84%.

`CC(C(=O)NCc1ccc(C(F)(F)F)nc1OCc1ccccc1)c1ccc(NS(C)(=O)=O)c(F)c1` (centres unmarked) [Example 106, N-(2-benzyloxy-6-trifluoromethyl-pyridin-3-ylmethyl)-2-(3-fluoro-4-methylsulfonamido-phenyl)-propionamide]: on vanilloid receptor (VR1) (setting [3]), the inhibitory constant (Ki) is 0.5 nM. In assay [1], the inhibition in vivo at 0.1 mg/kg is 24%. The half-maximal inhibitory concentration (IC50) at VR1/TRPV1 receptor (table 4) is 18.6 nM.

With `CC(C(=O)NCc1ccc(C(F)(F)F)nc1N1CCC(c2ccccc2)CC1)c1ccc(NS(C)(=O)=O)c(F)c1` (centres unmarked) [Example 137], the Ki in assay [2] (setting [4]) came to 1.9 nM. The inhibition in vivo at 0.3 mg/kg in assay [1] stood at 9%.

For the molecule `CC(C(=O)NCc1ccc(C(F)(F)F)nc1N1CCC(Nc2ccccc2)CC1)c1ccc(NS(C)(=O)=O)c(F)c1` (centres unmarked) [Compound 290], in assay [1], the inhibition in vivo at 0.3 mg/kg was 78% and the inhibition in vivo at 1 mg/kg worked out at 68%.

With `CC(C(=O)NCc1ccc(C(F)(F)F)nc1-n1ccnc1)c1ccc(NS(C)(=O)=O)c(F)c1` (centres unmarked) [Example 87, 2-(3-fluoro-4-methylsulfonamido-phenyl)-N-((6-(trifluoromethyl)-2-(1H-imidazol-1-yl)pyridin-3-yl)methyl)-propionamide], in assay [2] (setting [4]), the Ki was determined as 143 nM. In assay [1], the inhibition in vivo at 0.3 mg/kg was 0%. The same molecule had an IC50 against VR1/TRPV1 receptor (table 4) of 2570 nM.

For the molecule `CC(C(=O)NCc1ccc(C(F)(F)F)nc1N1CCCCC1C)c1ccc(NS(C)(=O)=O)c(F)c1` (centres unmarked) [Example 283, 2-(3-fluoro-4-methylsulfonamido-phenyl)-N-(2-methyl-6′-trifluoromethyl-3,4,5,6-tetrahydro-2H-[1,2′]bipyridinyl-3′-ylmethyl)-propionamide], the results for the Ki (in assay [2] (setting [4]); on vanilloid receptor (VR1) (setting [3])) were 4.5 nM and 2.9 nM, respectively. For the same molecule, the inhibition at 1 µM on VR1/TRPV1 receptor (setting [6]) worked out at 51%. Moreover, at VR1/TRPV1 receptor (@ 10 μM, read-out: inhibition in percent, IC50 (human) after pH stimulus), the inhibition at 10 µM was 51%.

As to `Cc1cccc(N2CCN(c3nc(C(F)(F)F)ccc3CNC(=O)C(C)c3ccc(NS(C)(=O)=O)c(F)c3)CC2)c1` (centres unmarked) [Example 220, 2-(3-fluoro-4-methylsulfonamido-phenyl)-N-[2-(4-m-tolyl-piperazin-1-yl)-6-trifluoromethyl-pyridin-3-ylmethyl]-propionamide], the Ki in assay [2] (setting [4]) was determined as 2.4 nM; on vanilloid receptor (VR1) (setting [3]), 3.4 nM. At VR1/TRPV1 receptor (table 4), this molecule had an IC50 of 39.2 nM.

For `COc1cc(C(C)C(=O)NCc2ccc(C(F)(F)F)nc2N2CCC(C)CC2)ccc1NS(C)(=O)=O` (centres unmarked) [Example 289, 2-(4-methylsulfonamido-3-methoxy-phenyl)-N-(4-methyl-6′-trifluoromethyl-3,4,5,6-tetrahydro-2H-[1,2′]bipyridinyl-3′-ylmethyl)-propionamide], the figures for the Ki (in assay [2] (setting [4]); on vanilloid receptor (VR1) (setting [3])) were 3.3 nM and 2.5 nM, respectively. Also, the “inhibition in percent, IC50 (human) after pH stimulus” value at VR1/TRPV1 receptor (@ 1 μM, ne = no effect) was “ne @ 1 μM”.

Consider `CC(C(=O)NCc1ccc(C(F)(F)F)nc1N1CCOCC1)c1ccc(NS(C)(=O)=O)c(F)c1` (centres unmarked) [Example 12, 2-(3-fluoro-4-(methylsulfonamido)phenyl)-N-((2-morpholino-6-(trifluoromethyl)pyridin-3-yl)methyl)propanamide], for which the Ki in assay [2] (Table 2, displacement of capsaicin (100 nM), Cheng-Prusoff, read-out: Ki (rat)) is 4.3 nM; at vanilloid receptor (VR1) (Table 2, displacement of capsaicin (100 nM), Cheng-Prusoff, read-out: Ki (human)) it was 1.3 nM. In addition, the half-inhibitory concentration (IC50) against VR1/TRPV1 receptor (Table 2) stood at 169 nM.

On to `CC(C(=O)NCc1ccc(C(C)(C)C)cc1N1CCCCC1)c1ccc(NS(C)(=O)=O)c(F)c1` (centres unmarked) [Example 63, N-(4-tert-butyl-2-(piperidin-1-yl)benzyl)-2-(3-fluoro-4-(methylsulfonamido)-phenyl)propanamide], for which the Ki worked out at 23.9 nM in assay [2] (setting [4]) and 28.6 nM on vanilloid receptor (VR1) (setting [3]). For the same molecule, the inhibition at 1 µM on VR1/TRPV1 receptor (setting [6]) was determined as 70%.

Consider `CCOC(=O)C1(c2ccccc2)CCN(c2nc(C(F)(F)F)ccc2CNC(=O)C(C)c2ccc(NS(C)(=O)=O)c(F)c2)CC1` (centres unmarked) [Example 189, 3′-{[2-(3-fluoro-4-methylsulfonamido-phenyl)-propionylamino]-methyl}-4-phenyl-6′-trifluoromethyl-3,4,5,6-tetrahydro-2H-[1,2′]bipyridinyl-4-carbonic acid ethyl ester], for which the figures for the Ki (in assay [2] (setting [5]); on vanilloid receptor (VR1)) were 3 nM and 4.7 nM, respectively. The molecule also registered an IC50 against VR1/TRPV1 receptor (table 4) of 166 nM.

Consider `CC(C(=O)NCc1ccc(C(F)(F)F)nc1N1CCCCCC1)c1ccc(NS(C)(=O)=O)c(F)c1` (centres unmarked) [Example 81, N-(2-azepan-1-yl-6-trifluoromethyl-pyridin-3-ylmethyl)-2-(3-fluoro-4-methylsulfonamido-phenyl)-propionamide], for which the Ki in assay [2] (setting [4]) was 2.4 nM. In addition, the inhibition in vivo at 0.3 mg/kg in assay [1] turned out to be 21%.

For `CC1CC(C)CN(c2nc(C(F)(F)F)ccc2CNC(=O)C(C)c2ccc(NS(C)(=O)=O)c(F)c2)C1` (centres unmarked) [Example 79, 2-(3-fluoro-4-methylsulfonamido-phenyl)-N-(2-3,5 dimethylpiperidin-1-yl-6-trifluoromethyl-pyridin-3-ylmethyl)-propionamide], the inhibitory constant (Ki) in assay [2] (setting [4]) stood at 0.8 nM; at vanilloid receptor (VR1) (setting [3]) it was 0.7 nM. For the same molecule, the IC50 at VR1/TRPV1 receptor (table 4) is 25.6 nM.
